From US5376748A, “Nitroquinolone derivatives” (Merck Sharp & Dohme Limited, priority 1992, dated 1994)

Test system: AMPA receptor
Assay: rat cortical slice, responses to AMPA (apparent equilibrium constant from righthand shift in concentration-response curve)
Format: cell-based
Conditions: righthand shift in the AMPA concentration-response curve
Description: The compounds useful in this invention potently and selectively block responses to NMDA and/or AMPA in a brain slice from rat cortex, and inhibit the binding of agonists and antagonists to the strychnine-insensitive site present on the NMDA receptor and/or AMPA binding to rat forebrain membranes.
The effects of compounds of the invention on responses to NMDA and AMPA were assessed using the rat cortical slice as described by Wong et al., Proc. Natl. Acad. Sci. USA, 1986, 83, 7104. The apparent equilibrium constant (Kb) was calculated from the righthand shift in the NMDA or AMPA concentration-response curves produced by the compound under test.

For `O=C1Nc2cc(Cl)ccc2CC1[N+](=O)[O-]` (stereo not shown) [Example 2, 7-Chloro-3-nitro-3,4-dihydroquinolin-2-one], the Kb was < 150 µM.
